Source: the supplement of paper PMC10307832

Assays:
Assay in all cases: relative viability (nuclei count vs DMSO), 5 days (fraction); higher = more cells survive
BI-D1870 + AZD7762 = compound: CC(C)CCN1c2nc(Nc3cc(F)c(O)c(F)c3)ncc2N(C)C(=O)C1C [BI-D1870] + NC(=O)Nc1cc(-c2cccc(F)c2)sc1C(=O)N[C@H]1CCCNC1 [AZD7762] (partner 0.2 µM)
Outline: (§1)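 After 5 days of treatment, lung cancer cells in 1536-well plates were fixed and stained in a single step (final 0.05% Triton X-100, 1% formaldehyde, 1 ug/ml Hoechst) and their nuclei counted on 4× images. Treatment had been applied by pin tool the day after seeding as one drug alone or as a fixed anchor-drug dose with five library-drug doses (not always all listed) in √10 steps. Relative viability is the nuclei count of treated wells divided by that of vehicle wells, and values are medians of duplicate plates.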

BI-D1870 + Tozasertib = compound: CC(C)CCN1c2nc(Nc3cc(F)c(O)c(F)c3)ncc2N(C)C(=O)C1C [BI-D1870] + Cc1cc(Nc2cc(N3CCN(C)CC3)nc(Sc3ccc(NC(=O)C4CC4)cc3)n2)n[nH]1 [Tozasertib] (partner 0.1 µM)
Outline: as §1

BI-D1870 + Pemetrexed = compound: CC(C)CCN1c2nc(Nc3cc(F)c(O)c(F)c3)ncc2N(C)C(=O)C1C [BI-D1870] + Nc1nc2[nH]cc(CCc3ccc(C(=O)N[C@@H](CCC(=O)O)C(=O)O)cc3)c2c(=O)[nH]1 [Pemetrexed] (partner 0.2 µM)
Outline: as §1

Zebularine + Phenformin = compound: O=c1ncccn1[C@@H]1O[C@H](CO)[C@@H](O)[C@H]1O [Zebularine] + N=C(N)NC(=N)NCCc1ccccc1 [Phenformin] (partner 250 µM)
Outline: as §1

| Cell Line | relative viability (BI-D1870 + AZD7762; first compound 0.04 µM) | relative viability (BI-D1870 + AZD7762; first compound 0.1265 µM) | relative viability (BI-D1870 + AZD7762; first compound 0.4 µM) | relative viability (BI-D1870 + AZD7762; first compound 1.265 µM) | relative viability (BI-D1870 + AZD7762; first compound 4 µM) | relative viability (BI-D1870 + Tozasertib; first compound 0.04 µM) | relative viability (BI-D1870 + Tozasertib; first compound 0.1265 µM) | relative viability (BI-D1870 + Tozasertib; first compound 0.4 µM) | relative viability (BI-D1870 + Tozasertib; first compound 1.265 µM) | relative viability (BI-D1870 + Tozasertib; first compound 4 µM) | relative viability (BI-D1870 + Pemetrexed; first compound 0.04 µM) | relative viability (BI-D1870 + Pemetrexed; first compound 0.1265 µM) | relative viability (BI-D1870 + Pemetrexed; first compound 0.4 µM) | relative viability (BI-D1870 + Pemetrexed; first compound 1.265 µM) | relative viability (BI-D1870 + Pemetrexed; first compound 4 µM) | relative viability (Zebularine + Phenformin; first compound 1 µM) | relative viability (Zebularine + Phenformin; first compound 3.162 µM) | relative viability (Zebularine + Phenformin; first compound 10 µM) | relative viability (Zebularine + Phenformin; first compound 31.62 µM) | relative viability (Zebularine + Phenformin; first compound 100 µM) |
| --- | --- | --- | --- | --- | --- | --- | --- | --- | --- | --- | --- | --- | --- | --- | --- | --- | --- | --- | --- | --- |
| HCC-366 | 0.389 | 0.273 | 0.202 | 0.662 | 0.477 | 0.0892 | 0.057 | 0.055 | 0.0986 | 0.0506 | 0.148 | 0.174 | 0.215 | 0.176 | 0.118 | 0.709 | 0.613 | 0.495 | 0.503 | 0.0892 |
| HCC-827 | 0.233 | 0.295 | 0.173 | 0.223 | 0.185 | 0.421 | 0.401 | 0.377 | 0.396 | 0.369 | 0.184 | 0.31 | 0.241 | 0.254 | 0.141 | 0.486 | 0.396 | 0.45 | 0.379 | 0.278 |
| HOP-62 | 0.969 | 0.898 | 0.798 | 0.834 | 0.651 | 0.371 | 0.371 | 0.407 | 0.39 | 0.301 | 0.331 | 0.333 | 0.379 | 0.409 | 0.365 | 0.827 | 0.653 | 0.286 | 0.282 | 0.266 |
| LC-2-ad | 0.849 | 0.805 | 0.831 | 0.886 | 0.675 | 0.561 | 0.479 | 0.443 | 0.367 | 0.373 | 0.292 | 0.267 | 0.264 | 0.275 | 0.253 | 0.657 | 0.538 | 0.416 | 0.488 | 0.325 |
| LCLC-97TM1 | 0.194 | 0.317 | 0.174 | 0.368 | 0.335 | 0.302 | 0.289 | 0.221 | 0.225 | 0.186 | 0.173 | 0.188 | 0.16 | 0.221 | 0.175 | 0.401 | 0.413 | 0.322 | 0.256 | 0.272 |
| LCLC-103H | 0.768 | 0.655 | 0.804 | 0.871 | 0.741 | 0.44 | 0.285 | 0.465 | 0.565 | 0.49 | 0.453 | 0.457 | 0.48 | 0.434 | 0.439 | 0.365 | 0.337 | 0.261 | 0.391 | 0.303 |
| NCI-H520 | – | – | – | – | – | 0.508 | 0.441 | 0.44 | 0.358 | 0.36 | 0.757 | 0.673 | 0.636 | 0.416 | 0.267 | 0.76 | 0.6 | 0.313 | 0.332 | 0.206 |
| NCI-H661 | – | – | – | – | – | 0.355 | 0.337 | 0.336 | 0.354 | 0.381 | 0.913 | 0.906 | 0.931 | 0.928 | 0.857 | 0.279 | 0.269 | 0.28 | 0.275 | 0.264 |
| NCI-H727 | 0.575 | 0.793 | 0.569 | 0.838 | 0.515 | 0.683 | 0.699 | 0.561 | 0.773 | 0.557 | – | – | – | – | – | 0.628 | – | – | 0.693 | 0.528 |
